US20170042924A1, “MUSCLE ATROPHY INHIBITOR CONTAINING QUERCETIN GLYCOSIDE” (SUNTORY HOLDINGS LIMITED, priority 2014, published 2017)

Tests used:
BALB/c male mice = experiment: Dexamethasone-induced muscle atrophy, forced oral administration test, gastrocnemius weight/body weight ratio; type: in vivo; settings: 200 mg/kg QG or equivalent amount of quercetin in terms of rutin, with DEX 10 mg/L in drinking water, compared to the DEX group, FIG. 3
Method: BALB/c male mice aged 7 weeks were habituated for one week, and then allowed to ingest 10 mg/L dexamethasone (DEX) in drinking water ad libitum. Next, 200 mg/kg quercetin glycoside (QG) and an equivalent amount of quercetin (Q) in terms of rutin were each suspended in milliQ water containing 0.5% carboxymethyl cellulose sodium salt, and the suspensions were each forcibly administered orally […] to the mice for five days (from Monday to Friday). Then, administration of 10 mg/L DEX in drinking water was started from Friday. In the next week, forced oral QG/Q administration was resumed (from Monday to Thursday) concurrently with DEX administration in drinking water, and the mice were dissected on Friday. Sample collection after the administration test, muscle atrophy evaluation based on gastrocnemius weight (GW)/body weight (BW) ratio, and gene expression level analysis in gastrocnemius tissue were performed according to the procedures described in Examples 1 and 2. The differences in average gene expression levels between the DEX group and each of the DEX+QG group and the DEX+Q group were analyzed by Dunnett's test, with p-values below 5% being considered significant.

MuRF-1 = MuRF-1 expression in gastrocnemius tissue, forced oral administration test; type: in vivo, mice; settings: 200 mg/kg QG or equivalent amount of quercetin, with DEX 10 mg/L in drinking water, compared to the DEX group, FIG. 4
Method: (§1) Thereafter, for the purpose of a detailed analysis of the molecular mechanisms, the expression of genes involved in muscle atrophy in gastrocnemius tissue was analyzed. RNA was extracted from the cryopreserved gastrocnemius samples using ISOGEN (Nippon Gene Co., Ltd.) and the RNeazy Mini Kit (Qiagen). Then, cDNA synthesis was conducted using the High-Capacity cDNA Reverse Transcriptional Kits (Applied biosystems). Based on the constructed cDNAs, the messenger RNA (mRNA) levels of the muscle atrophy-related genes (Atrogin-1, MuRF-1, Foxo1, Redd1, and Mstn) and the control gene (18SrRNA) were determined by quantitative reverse transcription PCR using the TaqMan Fast Universal PCR Master Mix (Applied biosystems). The values obtained were expressed as mean±standard deviation. The differences in average gene expression levels between the DEX group and each of the DEX+QG groups were analyzed by Student's t-test, with p-values below 5% being considered significant. BALB/c male mice aged 7 weeks were habituated for one week, and then allowed to ingest 10 mg/L dexamethasone (DEX) in drinking water ad libitum. […] The differences in average gene expression levels between the DEX group and each of the DEX+QG group and the DEX+Q group were analyzed by Dunnett's test, with p-values below 5% being considered significant.

Foxo1 = Foxo1 expression in gastrocnemius tissue, forced oral administration test; type: in vivo, mice; settings: 200 mg/kg QG or equivalent amount of quercetin, with DEX 10 mg/L in drinking water, compared to the DEX group, FIG. 4
Method: as §1

Redd1 = Redd1 expression in gastrocnemius tissue, forced oral administration test; type: in vivo, mice; settings: 200 mg/kg QG or equivalent amount of quercetin, with DEX 10 mg/L in drinking water, compared to the DEX group, FIG. 4
Method: as §1

For `O=c1c(O)c(-c2ccc(O)c(O)c2)oc2cc(O)cc(O)c12` [quercetin], the “GW/BW ratio (gastrocnemius weight divided by body weight)” value (BALB/c male mice) was “not effective in improving the GW/BW ratio”, the “expression of MuRF-1 increased by DEX administration” value (MuRF-1) was “not effective in inhibiting the expression” and the “expression of Foxo1 increased by DEX administration” value (Foxo1) was “not effective in inhibiting the expression”. For the same compound, the “expression of Redd1 increased by DEX administration” value (Redd1) was “not effective in inhibiting the expression”.
